From patent publication US11998539B2, “Substituted aminoquinolones as DGKalpha inhibitors for immune activation” (Bayer Aktiengesellschaft, priority 2019, dated 2024)

Target: DGKα (Homo sapiens (Human), UniProt P23743)
Experiment: Human DGKα kinase activity inhibition assay (ADP-Glo)
Assay type: biochemical
Conditions: recombinant full-length human DGKα, 55 μM ATP, 7 μM 1,2-dioleoyl-sn-glycerol, read-out: IC50 values of examples in in vitro human DGKa kinase activity inhibition assays
Outline: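 Recombinant full-length human DGKα (C-terminal FLAG, from insect cells) phosphorylated 1,2-dioleoyl-sn-glycerol presented in octyl-glucopyranoside micelles. ADP formed was quantified by ADP-Glo luminescence. Compounds were added from 100-fold DMSO stocks.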

Sequence of DGKα (P23743 other isoform, or with tags, fused parts or gaps): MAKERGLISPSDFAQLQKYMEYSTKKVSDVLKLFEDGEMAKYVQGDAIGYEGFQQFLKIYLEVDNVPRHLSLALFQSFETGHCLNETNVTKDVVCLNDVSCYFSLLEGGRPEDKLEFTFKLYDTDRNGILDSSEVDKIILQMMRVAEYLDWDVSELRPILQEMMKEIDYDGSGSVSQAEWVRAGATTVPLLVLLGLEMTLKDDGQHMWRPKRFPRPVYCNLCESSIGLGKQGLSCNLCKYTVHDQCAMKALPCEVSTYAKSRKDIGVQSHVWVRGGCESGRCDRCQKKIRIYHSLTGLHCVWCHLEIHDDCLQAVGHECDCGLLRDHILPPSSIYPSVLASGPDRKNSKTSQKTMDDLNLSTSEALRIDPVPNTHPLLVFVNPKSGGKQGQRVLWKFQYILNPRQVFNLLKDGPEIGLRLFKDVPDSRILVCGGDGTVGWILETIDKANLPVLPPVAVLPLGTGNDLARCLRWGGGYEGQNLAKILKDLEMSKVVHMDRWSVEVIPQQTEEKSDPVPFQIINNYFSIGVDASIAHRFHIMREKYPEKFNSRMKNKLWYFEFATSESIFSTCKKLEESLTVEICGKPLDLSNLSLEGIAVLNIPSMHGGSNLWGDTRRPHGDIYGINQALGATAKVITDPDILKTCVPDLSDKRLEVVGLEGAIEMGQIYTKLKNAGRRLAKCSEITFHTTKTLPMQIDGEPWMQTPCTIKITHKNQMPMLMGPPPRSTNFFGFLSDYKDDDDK

Compound: Cn1c(=O)c(C#N)c(N2CCC(c3nc4ccc(Cl)cc4o3)CC2)c2cccc(Br)c21 [Example 157, 8-bromo-4-[4-(6-chloro-1,3-benzoxazol-2-yl)piperidin-1-yl]-1-methyl-2-oxo-1,2-dihydroquinoline-3-carbonitrile]
- IC50: 252 nM

Compound: Cc1ccc2oc(C3(C)CCN(c4c(C#N)c(=O)n(C)c5cc(OCC6(C#N)CC6)ccc45)CC3)nc2c1 [Example 251, 7-[(1-cyanocyclopropyl)methoxy]-1-methyl-4-[4-methyl-4-(5-methyl-1,3-benzoxazol-2-yl)piperidin-1-yl]-2-oxo-1,2-dihydroquinoline-3-carbonitrile]
- IC50: 9.3 nM

Compound: COc1ccc2c(N3CCC(c4nc5cc(Cl)ccc5o4)CC3)c(C#N)c(=O)n(C)c2c1 [Example 259, 4-[4-(5-chloro-1,3-benzoxazol-2-yl)piperidin-1-yl]-7-methoxy-1-methyl-2-oxo-1,2-dihydroquinoline-3-carbonitrile]
- IC50: 29 nM

Compound: Cc1ccc2oc(C3(C)CCN(c4c(C#N)c(=O)n(C)c5ccccc45)CC3)nc2c1 [Example 288, 1-methyl-4-[4-methyl-4-(5-methyl-1,3-benzoxazol-2-yl)piperidin-1-yl]-2-oxo-1,2-dihydroquinoline-3-carbonitrile]
- IC50: 3.8 nM

Compound: Cn1c(=O)c(C#N)c(N2CCC(C)(c3nc4ccccc4o3)CC2)c2ccc(C(F)(F)F)cc21 [Example 292, 4-[4-(1,3-benzoxazol-2-yl)-4-methylpiperidin-1-yl]-1-methyl-2-oxo-7-(trifluoromethyl)-1,2-dihydroquinoline-3-carbonitrile]
- IC50: 3.2 nM

Compound: Cn1c(=O)c(C#N)c(N2CCC(c3cccc(N=S(C)(C)=O)c3)CC2)c2ccccc21 [Example 69, 4-[4-(3-{[dimethyl(oxo)-A6-sulfanylidene]amino}phenyl)piperidin-1-yl]-1-methyl-2-oxo-1,2-dihydroquinoline-3-carbonitrile]
- IC50: 105 nM

Compound: Cn1c(=O)c(C#N)c(N2CCC(c3cccc4cnccc34)CC2)c2ccccc21 [Example 78, 4-[4-(isoquinolin-5-yl)piperidin-1-yl]-1-methyl-2-oxo-1,2-dihydroquinoline-3-carbonitrile]
- IC50: 104 nM

Compound: COC1(c2cc3ccccc3s2)CCN(c2c(C(N)=O)c(=O)n(C)c3ccccc23)CC1 [Example 455, 4-[4-(1-benzothiophen-2-yl)-4-methoxypiperidin-1-yl]-1-methyl-2-oxo-1,2-dihydroquinoline-3-carboxamide]
- IC50: 1.9 nM

Compound: Cc1ccc2oc(C3(C)CCN(c4c(C#N)c(=O)n(C)c5ccc(N6C[C@H](O)CC6=O)cc45)CC3)nc2c1 [Example 277, 6-[(4R)-4-hydroxy-2-oxopyrrolidin-1-yl]-1-methyl-4-[4-methyl-4-(5-methyl-1,3-benzoxazol-2-yl)piperidin-1-yl]-2-oxo-1,2-dihydroquinoline-3-carbonitrile]
- IC50: 243 nM

Compound: Cn1c(=O)c(C#N)c(N2CCC(c3cc(Cl)cc(Cl)c3)CC2)c2ccccc21 [Example 84, 4-[4-(3,5-dichlorophenyl)piperidin-1-yl]-1-methyl-2-oxo-1,2-dihydroquinoline-3-carbonitrile]
- IC50: 52 nM

Compound: Cc1ccc2oc(C3CCN(c4c(C(N)=O)c(=O)n(C)c5cc(OC6CCOC6)c(C6(C(F)(F)F)CC6)cc45)CC3)nc2c1 (racemic) [Example 518, (rac)-1-methyl-4-[4-(5-methyl-1,3-benzoxazol-2-yl)piperidin-1-yl]-2-oxo-7-[(oxolan-3-yl)oxy]-6-[1-(trifluoromethyl)cyclopropyl]-1,2-dihydroquinoline-3-carboxamide]
- IC50: 596 nM

Compound: COc1ccc(C2CCN(c3c(C#N)c(=O)n(C)c4ccc(-c5ccccc5)cc34)CC2)cc1 [Example 181, 4-[4-(4-methoxyphenyl)piperidin-1-yl]-1-methyl-2-oxo-6-phenyl-1,2-dihydroquinoline-3-carbonitrile]
- IC50: 150 nM

Compound: Cc1ccc2oc(C3CCN(c4c(C(N)=O)c(=O)n(C)c5cc(F)c(Br)cc45)CC3)nc2c1 [Example 563, 6-bromo-7-fluoro-1-methyl-4-[4-(5-methyl-1,3-benzoxazol-2-yl)piperidin-1-yl]-2-oxo-1,2-dihydroquinoline-3-carboxamide]
- IC50: 1.7 nM

Compound: Cc1ccc2c(c1)c(N1CCC(C)(c3nc4ccccc4o3)CC1)c(C#N)c(=O)n2C [Example 214, 4-[4-(1,3-benzoxazol-2-yl)-4-methylpiperidin-1-yl]-1,6-dimethyl-2-oxo-1,2-dihydroquinoline-3-carbonitrile]
- IC50: 0.9 nM

Compound: Cn1c(=O)c(C#N)c(N2CCC(C)(c3nc4ccc(OC(F)(F)F)cc4o3)CC2)c2ccccc21 [Example 20, 1-methyl-4-{4-methyl-4-[6-(trifluoromethoxy)-1,3-benzoxazol-2-yl]piperidin-1-yl}-2-oxo-1,2-dihydroquinoline-3-carbonitrile]
- IC50: 1.5 nM

Compound: Cn1c(=O)c(C(N)=O)c(N2CCC(c3nc4ccccc4s3)CC2)c2ccc(N3CCCC3=O)cc21 [Example 116, 4-[4-(1,3-benzothiazol-2-yl)piperidin-1-yl]-1-methyl-2-oxo-7-(2-oxopyrrolidin-1-yl)-1,2-dihydroquinoline-3-carboxamide]
- IC50: 36 nM

Compound: Cn1c(=O)c(C#N)c(N2CCC(O)(c3cc4ccccc4s3)CC2)c2ccccc21 [Example 340, 4-[4-(1-benzothiophen-2-yl)-4-hydroxypiperidin-1-yl]-1-methyl-2-oxo-1,2-dihydroquinoline-3-carbonitrile]
- IC50: 72 nM

Compound: Cc1ccc2c(c1)c(N1CCC(c3nc4cc(C(C)C)ccc4o3)CC1)c(C(N)=O)c(=O)n2C [Example 200, 1,6-dimethyl-2-oxo-4-{4-[5-(propan-2-yl)-1,3-benzoxazol-2-yl]piperidin-1-yl}-1,2-dihydroquinoline-3-carboxamide]
- IC50: 3.9 nM

Compound: Cc1ccc2oc(C3(C)CCN(c4c(C#N)c(=O)n(C)c5cc(OC6CCC6)ccc45)CC3)nc2c1 [Example 247, 7-(cyclobutyloxy)-1-methyl-4-[4-methyl-4-(5-methyl-1,3-benzoxazol-2-yl)piperidin-1-yl]-2-oxo-1,2-dihydroquinoline-3-carbonitrile]
- IC50: 6.9 nM

Compound: Cc1ccc2oc(C3(C)CCN(c4c(C#N)c(=O)n(C)c5ccc(CC6COC6)cc45)CC3)nc2c1 [Example 286, 1-methyl-4-[4-methyl-4-(5-methyl-1,3-benzoxazol-2-yl)piperidin-1-yl]-6-[(oxetan-3-yl)methyl]-2-oxo-1,2-dihydroquinoline-3-carbonitrile]
- IC50: 374 nM

Compound: Cc1ccc2oc(C3CCN(c4c(C(N)=O)c(=O)n(C)c5cc(OC6CCOCC6)ccc45)CC3)nc2c1 [Example 479, 1-methyl-4-[4-(5-methyl-1,3-benzoxazol-2-yl)piperidin-1-yl]-7-[(oxan-4-yl)oxy]-2-oxo-1,2-dihydroquinoline-3-carboxamide]
- IC50: 59 nM

Compound: Cc1ccc2oc(C3(C)CCN(c4c(C#N)c(=O)n(C)c5cc(C)ccc45)CC3)nc2c1 [Example 220, 1,7-dimethyl-4-[4-methyl-4-(5-methyl-1,3-benzoxazol-2-yl)piperidin-1-yl]-2-oxo-1,2-dihydroquinoline-3-carbonitrile]
- IC50: 1.7 nM

Compound: Cn1c(=O)c(C#N)c(N2CCC(c3ccc4c(c3)CC(O)C4)CC2)c2ccccc21 (centres unmarked) [Example 359, 4-[4-(2-hydroxy-2,3-dihydro-1H-inden-5-yl)piperidin-1-yl]-1-methyl-2-oxo-1,2-dihydroquinoline-3-carbonitrile]
- IC50: 3.3 nM

Compound: Cn1c(=O)c(C#N)c(N2CCC(C)(c3nc4ccccc4o3)CC2)c2ccc(Cl)cc21 [Example 226, 4-[4-(1,3-benzoxazol-2-yl)-4-methylpiperidin-1-yl]-7-chloro-1-methyl-2-oxo-1,2-dihydroquinoline-3-carbonitrile]
- IC50: 1.3 nM

Compound: Cn1c(=O)c(C#N)c(N2CCC(c3nc4ccc(Br)cc4o3)CC2)c2ccccc21 [Example 294, 4-[4-(6-bromo-1,3-benzoxazol-2-yl)piperidin-1-yl]-1-methyl-2-oxo-1,2-dihydroquinoline-3-carbonitrile]
- IC50: 12 nM

Compound: Cc1ccc2oc(C3CCN(c4c(C#N)c(=O)n(C)c5cc(OCC(=O)O)ccc45)CC3)nc2c1 [Example 416, ({3-cyano-1-methyl-4-[4-(5-methyl-1,3-benzoxazol-2-yl)piperidin-1-yl]-2-oxo-1,2-dihydroquinolin-7-yl}oxy)acetic acid]
- IC50: 34 nM

Compound: Cn1c(=O)c(C(N)=O)c(N2CCC(c3nc(-c4ccccc4)no3)CC2)c2cc(Br)ccc21 [Example 523, 6-bromo-1-methyl-2-oxo-4-[4-(3-phenyl-1,2,4-oxadiazol-5-yl)piperidin-1-yl]-1,2-dihydroquinoline-3-carboxamide]
- IC50: 3.7 nM

Compound: COCc1ccc2c(c1)c(N1CCC(C)(c3nc4cc(C)ccc4o3)CC1)c(C#N)c(=O)n2C [Example 213, 6-(methoxymethyl)-1-methyl-4-[4-methyl-4-(5-methyl-1,3-benzoxazol-2-yl)piperidin-1-yl]-2-oxo-1,2-dihydroquinoline-3-carbonitrile]
- IC50: 39 nM

Compound: Cn1c(=O)c(C#N)c(N2CCC(c3nc4cc(Cl)ccc4o3)CC2)c2ccccc21 [Example 11, 4-[4-(5-chloro-1,3-benzoxazol-2-yl)piperidin-1-yl]-1-methyl-2-oxo-1,2-dihydroquinoline-3-carbonitrile]
- IC50: 3.8 nM

Compound: Cc1ccc2oc(C3CCN(c4c(C#N)c(=O)n(C)c5ccc(OCC(F)F)cc45)CC3)nc2c1 [Example 407, 6-(2,2-difluoroethoxy)-1-methyl-4-[4-(5-methyl-1,3-benzoxazol-2-yl)piperidin-1-yl]-2-oxo-1,2-dihydroquinoline-3-carbonitrile]
- IC50: 48 nM

Compound: Cn1c(=O)c(C#N)c(N2CCC(c3nc4cccc(F)c4o3)CC2)c2ccccc21 [Example 3, 4-[4-(7-fluoro-1,3-benzoxazol-2-yl)piperidin-1-yl]-1-methyl-2-oxo-1,2-dihydroquinoline-3-carbonitrile]
- IC50: 2.6 nM

Compound: CCC(C)c1ccc2c(c1)c(N1CCC(C)(c3nc4cc(C)ccc4o3)CC1)c(C#N)c(=O)n2C (centres unmarked) [Example 211, 6-(butan-2-yl)-1-methyl-4-[4-methyl-4-(5-methyl-1,3-benzoxazol-2-yl)piperidin-1-yl]-2-oxo-1,2-dihydroquinoline-3-carbonitrile]
- IC50: 456 nM
